From BindingDB's records for doi:10.1016/j.ejmech.2016.11.024 (Guangxi Normal University, 2017)

Key:
[1] = molecular target: T1, Proteasome subunit beta type-1 (Homo sapiens, UniProt P20618); assay: Inhibition of PGPH activity of human 20S proteasome using (Z)-LLE-bNA as substrate by fluorometric method
T1 sequence (P20618 whole entry): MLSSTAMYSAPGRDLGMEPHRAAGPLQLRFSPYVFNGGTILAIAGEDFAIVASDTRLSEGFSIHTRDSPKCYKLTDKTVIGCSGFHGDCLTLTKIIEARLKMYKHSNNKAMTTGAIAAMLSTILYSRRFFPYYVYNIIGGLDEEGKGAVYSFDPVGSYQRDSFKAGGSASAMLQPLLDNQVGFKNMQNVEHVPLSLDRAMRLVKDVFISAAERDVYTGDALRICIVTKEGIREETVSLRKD

[2] = molecular target: Proteasome subunit beta type-2 (Homo sapiens, UniProt P49721); assay: Inhibition of trypsin-like activity of human 20S proteasome using Bz-VGR-AMC as substrate by fluorometric method
Chain of Proteasome subunit beta type-2 (P49721 whole entry): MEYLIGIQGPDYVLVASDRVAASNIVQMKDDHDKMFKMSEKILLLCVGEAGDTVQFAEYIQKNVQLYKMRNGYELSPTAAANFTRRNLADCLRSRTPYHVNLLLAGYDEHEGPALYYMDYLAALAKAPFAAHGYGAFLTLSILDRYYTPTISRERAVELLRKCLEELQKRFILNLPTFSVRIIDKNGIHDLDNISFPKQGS

SMILES	IC50 [1]	IC50 [2]
CC[C@H](C)[C@H](/N=C(/Nc1cccc(C(F)(F)F)c1)SC)C(=O)N[C@H](Cc1ccccc1)C(=O)Nc1cccc(C(F)(F)F)c1	22.6 µM	
CC[C@H](C)[C@H](NC(=S)Nc1ccc(C(F)(F)F)cc1)C(=O)N[C@H](Cc1ccccc1)C(=O)Nc1cccc(Br)c1	22.7 µM	> 50 µM
CC[C@H](C)[C@H](NC(=S)Nc1cccc([N+](=O)[O-])c1)C(=O)N[C@H](Cc1ccccc1)C(=O)Nc1cccc(C(F)(F)F)c1	35 µM	
